Data from ChEMBL document CHEMBL6087442, “Modulating the Potency of BRD4 PROTACs at the Systems Level with Amine-Acid Coupling Reactions” (J Med Chem, 2025).

How the values were obtained:
[1] = molecular target: T1, Protein cereblon/Bromodomain-containing protein 4 (Homo sapiens, UniProt O60885+Q96SW2); assay: PROTAC activity at CRBN/BRD4 in HEK293 cells assessed as induction of BRD4 degradation incubated for 24 hrs by HTRF assay; format: cell-based
[2] = molecular target: T1, Protein cereblon/Bromodomain-containing protein 4; assay: PROTAC activity at CRBN/BRD4 in HEK293 cells assessed as induction of BRD4 degradation by measuring maximal efficacy incubated for 24 hrs by HTRF assay relative to control; format: cell-based
[3] = Chromatographic hydrophobicity index, logD of the compound at pH 7.4; format: physicochemical; details: buffer
[4] = molecular target: Bromodomain-containing protein 4 (Homo sapiens, UniProt O60885); assay: Binding affinity to N-terminal GST-tagged BRD4-BD1 (unknown origin) using biotinylated histon4 peptide as substrate incubated for 30 mins by HTRF assay
[5] = molecular target: T2, Protein cereblon (Homo sapiens, UniProt Q96SW2); assay: Binding affinity to NanoLuc-fused CRBN (unknown origin) transfected in live HEK293 cells using NanoGlo as substrate incubated for 2 hrs by NanoBRET assay; format: cell-based
[6] = molecular target: T2, Protein cereblon; assay: Binding affinity to NanoLuc-fused CRBN (unknown origin) transfected in permeabilized HEK293 cells using NanoGlo as substrate incubated for 2 hrs by NanoBRET assay; format: cell-based
[7] = species on record: Homo sapiens; assay: Selectivity ratio of IC50 for NanoLuc-fused CRBN (unknown origin) transfected in live HEK293 cells to IC50 for NanoLuc-fused CRBN (unknown origin) transfected in permeabilized HEK293 cells; format: cell-based
[8] = molecular target: T3, Protein cereblon/Bromodomain-containing protein 4/DNA damage-binding protein 1 (Homo sapiens) (UniProt O60885+Q96SW2+Q16531); assay: Binding affinity to biotinylated CRBN/DDB1/N-terminal GST-tagged BRD4-BD1 (unknown origin) assessed as ternary complex formation (KTF) by HTRF assay; format: protein assay
[9] = molecular target: T3, Protein cereblon/Bromodomain-containing protein 4/DNA damage-binding protein 1 (Homo sapiens); assay: Binding affinity to biotinylated CRBN/DDB1/N-terminal GST-tagged BRD4-BD1(unknown origin) assessed as ternary complex formation (AUC) by HTRF assay; format: protein assay
[10] = molecular target: T4, von Hippel-Lindau disease tumor suppressor/Bromodomain-containing protein 4 (Homo sapiens, UniProt O60885+P40337); assay: PROTAC activity at VHL/BRD4 in HEK293 cells assessed as induction of BRD4 degradation incubated for 24 hrs by HTRF assay; format: cell-based
T4 sequence (P40337 whole entry, looked up, other chains not shown): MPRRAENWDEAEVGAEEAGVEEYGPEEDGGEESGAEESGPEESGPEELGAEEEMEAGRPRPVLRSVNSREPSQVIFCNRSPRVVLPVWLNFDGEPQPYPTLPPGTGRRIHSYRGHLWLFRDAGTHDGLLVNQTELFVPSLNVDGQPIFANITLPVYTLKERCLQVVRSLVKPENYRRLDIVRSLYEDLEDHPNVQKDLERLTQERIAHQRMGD

[11] = molecular target: T4, von Hippel-Lindau disease tumor suppressor/Bromodomain-containing protein 4; assay: PROTAC activity at VHL/BRD4 in HEK293 cells assessed as induction of BRD4 degradation by measuring maximal efficacy incubated for 24 hrs by HTRF assay relative to control; format: cell-based

| Compound | DC50 [1] | Emax [2] | chromatographic logD [3] | IC50 [4] | IC50 [5] | IC50 [6] | Ratio IC50 [7] | K [8] | AUC [9] | DC50 [10] | Emax [11] |
| --- | --- | --- | --- | --- | --- | --- | --- | --- | --- | --- | --- |
| Cc1sc2c(c1C)C(c1ccc(Cl)cc1)=N[C@@H](CCNCCCCNC(=O)COc1cccc3c1C(=O)N(C1CCC(=O)NC1=O)C3=O)c1nnc(C)n1-2 (stereo not given in full) | > 11000 nM | 2% | 1.66 | 453 nM | 11300 nM | 102 nM | 110 | 108 nM | 71.5 | – | – |
| Cc1sc2c(c1C)C(c1ccc(Cl)cc1)=N[C@@H](CCCCCNC(=O)COc1cccc3c1C(=O)N(C1CCC(=O)NC1=O)C3=O)c1nnc(C)n1-2 (stereo not given in full) | 10.8 nM | 76% | 2.81 | 66.9 nM | 503 nM | 121 nM | 4.2 | 29.2 nM | 156 | – | – |
| Cc1ncsc1-c1ccc(CNC(=O)[C@@H]2C[C@@H](O)CN2C(=O)[C@H](C(C)C)N2Cc3ccccc3C2=O)c(OCCCOCCCC[C@@H]2N=C(c3ccc(Cl)cc3)c3c(sc(C)c3C)-n3c(C)nnc32)c1 | – | – | 3.38 | – | – | – | – | – | – | 228 nM | 58% |
| Cc1ncsc1-c1ccc(CNC(=O)[C@@H]2C[C@@H](O)CN2C(=O)[C@H](C(C)C)N2Cc3ccccc3C2=O)c(OCCCOCCOC(=O)C[C@@H]2N=C(c3ccc(Cl)cc3)c3c(sc(C)c3C)-n3c(C)nnc32)c1 | – | – | 3.25 | – | – | – | – | – | – | 15.8 nM | 89% |
| Cc1ncsc1-c1ccc(CNC(=O)[C@@H]2C[C@@H](O)CN2C(=O)[C@H](C(C)C)N2Cc3ccccc3C2=O)c(OCCCOCCNCC[C@@H]2N=C(c3ccc(Cl)cc3)c3c(sc(C)c3C)-n3c(C)nnc32)c1 | – | – | 2.3 | – | – | – | – | – | – | > 11000 nM | 14% |
| Cc1sc2c(c1C)C(c1ccc(Cl)cc1)=N[C@@H](CC(=O)CCCCNC(=O)COc1cccc3c1C(=O)N(C1CCC(=O)NC1=O)C3=O)c1nnc(C)n1-2 (stereo not given in full) | 9.2 nM | 85% | 2.57 | 24.2 nM | 422 nM | 107 nM | 3.9 | 6.7 nM | 251 | – | – |
| Cc1sc2c(c1C)C(c1ccc(Cl)cc1)=N[C@@H](CC(=O)OCCCCNC(=O)COc1cccc3c1C(=O)N(C1CCC(=O)NC1=O)C3=O)c1nnc(C)n1-2 (stereo not given in full) | 5.4 nM | 83% | 2.68 | 2.3 nM | 264 nM | 68.8 nM | 2.4 | 5 nM | 158 | – | – |
| Cc1sc2c(c1C)C(c1ccc(Cl)cc1)=N[C@@H](CC(=O)NCCCCNC(=O)COc1cccc3c1C(=O)N(C1CCC(=O)NC1=O)C3=O)c1nnc(C)n1-2 (stereo not given in full) | – | 80% | 2.16 | – | – | – | – | 9.4 nM | 163 | – | – |
| Cc1ncsc1-c1ccc(CNC(=O)[C@@H]2C[C@@H](O)CN2C(=O)[C@H](C(C)C)N2Cc3ccccc3C2=O)c(OCCCOCCNC(=O)C[C@@H]2N=C(c3ccc(Cl)cc3)c3c(sc(C)c3C)-n3c(C)nnc32)c1 | – | – | 2.78 | – | – | – | – | – | – | 68.3 nM | 87% |
| Cc1ncsc1-c1ccc(CNC(=O)[C@@H]2C[C@@H](O)CN2C(=O)[C@H](C(C)C)N2Cc3ccccc3C2=O)c(OCCCOCCC(=O)C[C@@H]2N=C(c3ccc(Cl)cc3)c3c(sc(C)c3C)-n3c(C)nnc32)c1 | – | – | 3.16 | – | – | – | – | – | – | 13.4 nM | 79% |
